The values below come from patent US9834571B2, “Compounds for inhibiting cell proliferation in EGFR-driven cancers” (ARIAD Pharmaceuticals, Inc., priority 2012, dated 2017).

Like-named read-outs stand apart in the source and are kept apart here. Some results are limits rather than exact numbers.

For experiment [1], the target named is T1, BaF3 cells expressing the target EGFR mutations (Homo sapiens, UniProt P00533, T790M, cells depend on it, form not given).
T1 construct: IC50, BAF3 EGFR DEL T790M PURO POOL; other: BAF3 EGFR DEL T790M PURO POOL cells, MTT; other: BAF3 EGFR DEL T790M PURO POOL cells; MTT
Briefly: Antiproliferative activity (MTT) against BaF3 cells expressing the target EGFR mutations. Particulars: BAF3 EGFR DEL T790M PURO POOL cells, read-out: IC50, BAF3 EGFR DEL T790M PURO POOL. It is filed as cell-based. The gist of the method:
(§1)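 Antiproliferative effect was measured by MTT in BaF3 cells engineered to express mutant EGFR, with wildtype-EGFR BaF3 cells as the control line.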

The target of experiment [2] is T2, BaF3 cells expressing the target EGFR mutations (Homo sapiens, UniProt P00533, T790M/L858R, cells depend on it).
T2 construct: IC50, BAF3 EGFR L858R-T790M PURO POOL; other: BAF3 EGFR L858R-T790M PURO POOL cells, MTT; IC50, BAF3 EGFR L858R-T790M PURO POOL; other: BAF3 EGFR L858R-T790M PURO POOL cells; MTT
T2 sequence (P00533 whole entry T790M/L858R): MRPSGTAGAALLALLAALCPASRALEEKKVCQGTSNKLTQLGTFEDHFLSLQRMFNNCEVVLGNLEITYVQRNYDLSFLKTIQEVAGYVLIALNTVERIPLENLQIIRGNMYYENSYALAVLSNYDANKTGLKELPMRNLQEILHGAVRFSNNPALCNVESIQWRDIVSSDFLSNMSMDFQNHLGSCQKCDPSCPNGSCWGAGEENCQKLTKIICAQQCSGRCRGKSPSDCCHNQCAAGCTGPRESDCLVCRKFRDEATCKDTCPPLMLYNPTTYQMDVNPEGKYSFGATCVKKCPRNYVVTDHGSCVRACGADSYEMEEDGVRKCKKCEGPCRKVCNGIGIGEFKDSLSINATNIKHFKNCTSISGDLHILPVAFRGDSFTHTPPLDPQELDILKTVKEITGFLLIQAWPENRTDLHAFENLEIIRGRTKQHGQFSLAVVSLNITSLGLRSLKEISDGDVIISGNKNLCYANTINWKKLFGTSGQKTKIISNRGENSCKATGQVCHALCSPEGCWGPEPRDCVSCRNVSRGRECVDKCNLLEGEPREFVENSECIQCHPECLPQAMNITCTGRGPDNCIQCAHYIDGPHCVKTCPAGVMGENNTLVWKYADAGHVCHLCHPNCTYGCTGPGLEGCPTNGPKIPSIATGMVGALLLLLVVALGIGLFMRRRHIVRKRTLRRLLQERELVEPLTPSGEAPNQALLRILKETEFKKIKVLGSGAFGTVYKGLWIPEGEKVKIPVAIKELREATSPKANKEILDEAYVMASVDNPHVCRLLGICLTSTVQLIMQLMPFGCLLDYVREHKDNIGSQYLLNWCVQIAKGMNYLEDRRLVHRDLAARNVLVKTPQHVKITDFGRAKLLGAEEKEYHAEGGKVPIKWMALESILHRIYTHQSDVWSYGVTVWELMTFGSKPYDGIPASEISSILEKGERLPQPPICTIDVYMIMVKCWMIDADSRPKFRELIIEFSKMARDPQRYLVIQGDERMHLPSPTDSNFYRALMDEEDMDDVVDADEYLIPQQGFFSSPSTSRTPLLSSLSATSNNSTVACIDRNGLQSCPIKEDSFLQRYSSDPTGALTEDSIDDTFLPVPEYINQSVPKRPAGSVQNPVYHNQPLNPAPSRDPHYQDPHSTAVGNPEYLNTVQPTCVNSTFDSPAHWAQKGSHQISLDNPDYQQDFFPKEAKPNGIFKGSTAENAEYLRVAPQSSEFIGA
Described as above. It is filed as cell-based. The conditions noted are these: BAF3 EGFR L858R-T790M PURO POOL cells, read-out: IC50, BAF3 EGFR L858R-T790M PURO POOL. The gist of the method: as §1

For experiment [3], the target named is human EGFR (native sequence) (Homo sapiens, UniProt P00533). Put plainly: Kinase inhibitory activity against human EGFR (native sequence). Format: biochemical. Particulars: 10 μM ATP, read-out: IC50 for kinase inhibition, EGFR. The gist of the method: (§2)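 Each assay used 10 μM ATP. Inhibitors were tested as 10-point curves, highest concentration 3 μM, no replicates.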
human EGFR (native sequence), sequence (P00533 25-1210): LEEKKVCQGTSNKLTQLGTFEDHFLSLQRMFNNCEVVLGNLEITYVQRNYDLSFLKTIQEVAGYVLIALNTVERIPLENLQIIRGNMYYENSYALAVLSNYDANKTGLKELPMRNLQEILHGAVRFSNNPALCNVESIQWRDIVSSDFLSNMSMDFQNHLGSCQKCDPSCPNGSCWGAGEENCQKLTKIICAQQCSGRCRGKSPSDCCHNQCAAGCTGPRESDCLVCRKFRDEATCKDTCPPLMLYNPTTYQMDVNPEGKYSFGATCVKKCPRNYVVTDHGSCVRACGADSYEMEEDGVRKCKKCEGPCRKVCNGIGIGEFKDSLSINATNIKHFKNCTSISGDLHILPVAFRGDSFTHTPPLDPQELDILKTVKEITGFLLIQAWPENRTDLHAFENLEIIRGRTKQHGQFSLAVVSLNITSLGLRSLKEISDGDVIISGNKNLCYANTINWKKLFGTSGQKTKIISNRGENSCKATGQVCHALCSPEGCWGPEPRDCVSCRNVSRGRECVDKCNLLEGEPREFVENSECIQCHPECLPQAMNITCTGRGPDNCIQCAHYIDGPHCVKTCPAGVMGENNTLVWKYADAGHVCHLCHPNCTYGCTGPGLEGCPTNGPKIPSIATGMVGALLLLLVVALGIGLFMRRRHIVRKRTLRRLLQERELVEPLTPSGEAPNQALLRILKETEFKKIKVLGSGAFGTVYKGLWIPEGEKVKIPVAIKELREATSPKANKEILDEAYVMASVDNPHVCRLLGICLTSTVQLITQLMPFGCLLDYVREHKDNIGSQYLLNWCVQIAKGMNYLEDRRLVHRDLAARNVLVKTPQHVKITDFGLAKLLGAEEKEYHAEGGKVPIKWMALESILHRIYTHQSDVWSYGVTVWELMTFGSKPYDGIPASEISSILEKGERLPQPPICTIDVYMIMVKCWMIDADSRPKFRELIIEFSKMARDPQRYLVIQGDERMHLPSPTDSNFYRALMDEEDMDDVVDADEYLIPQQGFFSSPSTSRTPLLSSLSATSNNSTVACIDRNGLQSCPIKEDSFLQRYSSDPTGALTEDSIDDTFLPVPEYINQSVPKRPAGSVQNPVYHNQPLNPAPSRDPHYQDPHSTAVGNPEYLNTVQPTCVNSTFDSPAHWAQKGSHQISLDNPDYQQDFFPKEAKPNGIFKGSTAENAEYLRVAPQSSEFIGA

In a further experiment the target is EGFR L858R (Homo sapiens, UniProt P00533, L858R). Briefly: Kinase inhibitory activity against EGFR bearing the L858R mutation. Particulars: 10 μM ATP, read-out: IC50 for kinase inhibition, EGFR L858R. It is filed as biochemical. The gist of the method: as §2
EGFR L858R, sequence (P00533 25-1210 L858R): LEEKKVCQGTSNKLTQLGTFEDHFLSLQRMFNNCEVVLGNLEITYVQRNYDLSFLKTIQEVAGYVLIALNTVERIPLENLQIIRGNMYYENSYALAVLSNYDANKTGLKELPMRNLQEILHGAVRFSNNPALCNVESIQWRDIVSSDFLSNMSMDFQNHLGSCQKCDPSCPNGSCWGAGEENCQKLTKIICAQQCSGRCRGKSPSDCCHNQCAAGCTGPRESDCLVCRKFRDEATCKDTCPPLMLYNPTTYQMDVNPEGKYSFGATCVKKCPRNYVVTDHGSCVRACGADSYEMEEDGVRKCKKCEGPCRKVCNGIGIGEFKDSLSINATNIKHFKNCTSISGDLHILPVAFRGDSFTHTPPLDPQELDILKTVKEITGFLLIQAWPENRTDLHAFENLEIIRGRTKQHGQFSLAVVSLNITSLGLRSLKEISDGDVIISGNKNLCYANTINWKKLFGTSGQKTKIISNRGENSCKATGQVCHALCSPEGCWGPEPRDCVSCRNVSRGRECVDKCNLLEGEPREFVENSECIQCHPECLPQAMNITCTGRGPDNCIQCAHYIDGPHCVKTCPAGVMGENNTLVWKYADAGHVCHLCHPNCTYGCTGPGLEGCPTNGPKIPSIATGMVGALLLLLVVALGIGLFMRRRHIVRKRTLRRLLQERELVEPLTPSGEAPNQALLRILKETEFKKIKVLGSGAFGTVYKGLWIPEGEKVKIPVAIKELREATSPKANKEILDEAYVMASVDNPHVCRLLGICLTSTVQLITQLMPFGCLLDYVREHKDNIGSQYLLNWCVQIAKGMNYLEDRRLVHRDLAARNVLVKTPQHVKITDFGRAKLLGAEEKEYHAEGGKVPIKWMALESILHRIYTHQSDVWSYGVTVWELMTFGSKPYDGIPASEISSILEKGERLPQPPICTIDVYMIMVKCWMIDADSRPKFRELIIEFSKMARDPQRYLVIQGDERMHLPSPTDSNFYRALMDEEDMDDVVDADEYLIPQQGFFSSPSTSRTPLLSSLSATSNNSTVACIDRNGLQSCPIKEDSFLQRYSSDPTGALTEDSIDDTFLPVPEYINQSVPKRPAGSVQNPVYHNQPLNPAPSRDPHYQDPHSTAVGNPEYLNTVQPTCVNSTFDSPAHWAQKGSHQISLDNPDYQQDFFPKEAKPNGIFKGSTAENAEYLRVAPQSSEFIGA
Experiment [4] concerns BaF3 cells expressing wildtype EGFR. Briefly: Antiproliferative activity (MTT) against control BaF3 cells expressing wildtype EGFR. It is filed as cell-based. The conditions noted are these: Mus musculus. The gist of the method: as §1
For the next experiment, the target named is EGFR L858R/T790M (Homo sapiens, UniProt P00533, L858R/T790M). Briefly: Kinase inhibitory activity against EGFR bearing the L858R/T790M double mutation. Format: biochemical. Particulars: 10 μM ATP, read-out: IC50 for kinase inhibition, EGFR L858R T790M. The gist of the method:
as §2

[5] abbreviates: 10 pt curves, 3 μM top concentration.
The mark [6] stands for this setting: EGFR L858R/T790M double mutation.

EGFR L858R/T790M, sequence (P00533 25-1210 T790M/L858R): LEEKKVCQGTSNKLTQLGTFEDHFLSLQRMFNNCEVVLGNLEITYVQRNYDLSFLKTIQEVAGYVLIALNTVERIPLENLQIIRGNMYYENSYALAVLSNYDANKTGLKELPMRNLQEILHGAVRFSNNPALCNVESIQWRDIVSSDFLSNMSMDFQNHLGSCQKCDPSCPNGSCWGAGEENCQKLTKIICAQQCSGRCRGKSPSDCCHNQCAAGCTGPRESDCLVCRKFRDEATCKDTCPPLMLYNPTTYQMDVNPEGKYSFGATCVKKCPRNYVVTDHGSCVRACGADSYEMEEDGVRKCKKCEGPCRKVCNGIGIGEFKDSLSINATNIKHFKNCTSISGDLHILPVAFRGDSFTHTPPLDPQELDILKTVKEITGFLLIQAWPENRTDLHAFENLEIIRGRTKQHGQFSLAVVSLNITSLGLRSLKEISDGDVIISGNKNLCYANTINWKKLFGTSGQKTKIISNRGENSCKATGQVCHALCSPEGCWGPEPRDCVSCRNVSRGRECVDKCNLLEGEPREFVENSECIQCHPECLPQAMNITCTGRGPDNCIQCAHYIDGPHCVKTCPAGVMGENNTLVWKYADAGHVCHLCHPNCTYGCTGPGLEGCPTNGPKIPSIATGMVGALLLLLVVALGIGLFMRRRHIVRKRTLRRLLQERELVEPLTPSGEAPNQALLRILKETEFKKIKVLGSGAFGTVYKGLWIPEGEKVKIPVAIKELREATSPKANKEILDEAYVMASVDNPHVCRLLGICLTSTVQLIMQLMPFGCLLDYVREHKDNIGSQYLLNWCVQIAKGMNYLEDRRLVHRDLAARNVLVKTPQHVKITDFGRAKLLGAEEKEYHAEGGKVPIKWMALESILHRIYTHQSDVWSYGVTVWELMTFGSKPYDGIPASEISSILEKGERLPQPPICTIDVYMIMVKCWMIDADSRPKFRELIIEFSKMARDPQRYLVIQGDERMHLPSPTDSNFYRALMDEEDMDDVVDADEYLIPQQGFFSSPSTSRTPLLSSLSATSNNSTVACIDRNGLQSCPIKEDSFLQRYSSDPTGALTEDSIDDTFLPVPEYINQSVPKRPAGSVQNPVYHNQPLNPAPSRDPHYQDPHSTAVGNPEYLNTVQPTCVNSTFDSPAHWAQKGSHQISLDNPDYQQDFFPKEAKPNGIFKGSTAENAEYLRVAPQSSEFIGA

With `C=CC(=O)Nc1ccc(OC)c(Nc2ncc(Cl)c(Nc3cnccc3P(C)(C)=O)n2)c1` [Example 164, N-(3-((5-chloro-4-((4-(dimethylphosphoryl)pyridin-3-yl)amino)pyrimidin-2-yl)amino)-4-methoxyphenyl)acrylamide], the GI50 in experiment [1] is 101 to 250 nM; in experiment [2] it was not below 250 nM. The half-maximal inhibitory concentration (IC50) in experiment [3] (setting [5]) was not below 250 nM; at EGFR L858R (setting [5]) it was less than 50 nM; in experiment [4] (BAF3 parental cells) it was not below 250 nM; at EGFR L858R/T790M (setting [5]), less than 50 nM.

As to `COCCC#CC(=O)Nc1cc(Nc2ncc(Cl)c(Nc3ccccc3P(C)(C)=O)n2)c(OC)cc1N1CCOCC1` [Example 115, N-(5-((5-chloro-4-((2-(dimethylphosphoryl)phenyl)amino)pyrimidin-2-yl)amino)-4-methoxy-2-morpholinophenyl)-5-methoxypent-2-ynamide], the GI50 in experiment [1] and in experiment [2] was less than 50 nM in each case. The 50% inhibitory concentration (IC50) in experiment [3] (setting [5]) is less than 50 nM; at EGFR L858R (setting [5]), less than 50 nM; in experiment [4] (BAF3 parental cells), not below 250 nM; at EGFR L858R/T790M (setting [5]), less than 50 nM.

For `C=CC(=O)Nc1cc(Nc2ncc(Cl)c(Nc3ccccc3P(C)(C)=O)n2)c(C)cc1OC(COC)CN(C)C` (stereo not drawn) [Example 143], the GI50 in experiment [1] and in experiment [2] was less than 50 nM each time. Further, the IC50 in experiment [3] (setting [5]) is less than 50 nM; at EGFR L858R (setting [5]), less than 50 nM; in experiment [4] (BAF3 parental cells), not below 250 nM; at EGFR L858R/T790M (setting [5]), less than 50 nM.

As for `C=CC(=O)Nc1cc(Nc2ncc(Cl)c(Nc3ccccc3P(C)(C)=O)n2)c(OC)cc1C#CC1(N(C)C)CC1` [Example 73, N-(5-((5-chloro-4-((2-(dimethylphosphoryl)phenyl)amino)pyrimidin-2-yl)amino)-2-((1-(dimethylamino)cyclopropyl)ethynyl)-4-methoxyphenyl)acrylamide], the GI50 in experiment [1] and in experiment [2] was 101 to 250 nM each time. The IC50 in experiment [3] (human EGFR native sequence) is not below 250 nM; at EGFR L858R (EGFR L858R) it was less than 50 nM; in experiment [4] (BAF3 PARENTAL cells (control)), not below 250 nM; at EGFR L858R/T790M (setting [6]) it was less than 50 nM.

As to `C=CC(=O)Nc1ccc(OC)c(Nc2ncc(Cl)c(Nc3ccc(OCCCN(C)C)cc3P(C)(C)=O)n2)c1` [Example 126, N-(3-((5-chloro-4-((4-(3-(dimethylamino)propoxy)-2-(dimethylphosphoryl)phenyl)amino)pyrimidin-2-yl)amino)-4-methoxyphenyl)acrylamide], the GI50 in experiment [1] and in experiment [2] was less than 50 nM in each case. The concentration for half-maximal inhibition (IC50) in experiment [3] (setting [5]) was less than 50 nM; at EGFR L858R (setting [5]), less than 50 nM; in experiment [4] (BAF3 parental cells), not below 250 nM; on EGFR L858R/T790M (setting [5]), less than 50 nM.

As for `COc1ccc(NC(=O)/C=C/C(=O)N(C)C)cc1Nc1ncc(Cl)c(Nc2ccccc2P(C)(C)=O)n1` [Example 60, N1-(3-((5-chloro-4-((2-(dimethylphosphoryl)phenyl)amino)pyrimidin-2-yl)amino)-4-methoxyphenyl)-N4,N4-dimethylfumaramide], the GI50 in experiment [1] and in experiment [2] was not below 250 nM each time. For the same molecule, the IC50 in experiment [3] (human EGFR native sequence) is not below 250 nM; on EGFR L858R (EGFR L858R), 50 to 100 nM; in experiment [4] (BAF3 PARENTAL cells (control)), not below 250 nM; at EGFR L858R/T790M (setting [6]) it was 101 to 250 nM.

On to `COc1ccc(NC(=O)C#Cc2ccccc2)cc1Nc1ncc(Cl)c(Nc2ccccc2P(C)(C)=O)n1` [Example 93, N-(3-((5-chloro-4-((2-(dimethylphosphoryl)phenyl)amino)pyrimidin-2-yl)amino)-4-methoxyphenyl)-3-phenylpropiolamide], for which the GI50 in experiment [1] and in experiment [2] was less than 50 nM each time. Besides, the IC50 in experiment [3] (human EGFR native sequence) is not below 250 nM; at EGFR L858R (EGFR L858R), less than 50 nM; in experiment [4] (BAF3 PARENTAL cells (control)), not below 250 nM; on EGFR L858R/T790M (setting [6]), less than 50 nM.

Consider `C=CC(=O)Nc1cc(Nc2ncc(Cl)c(Nc3ccccc3P(C)(C)=O)n2)c(OC)cc1N1CCC(N2CCC2)C1` (stereo not drawn) [Example 68, N-(2-(3-(azetidin-1-yl)pyrrolidin-1-yl)-5-((5-chloro-4-((2-(dimethylphosphoryl)phenyl)amino)pyrimidin-2-yl)amino)-4-methoxyphenyl)acrylamide], for which the GI50 in experiment [1] and in experiment [2] was less than 50 nM each time. Moreover, the IC50 in experiment [3] (human EGFR native sequence) is less than 50 nM; on EGFR L858R (EGFR L858R) it was less than 50 nM; in experiment [4] (BAF3 PARENTAL cells (control)), not below 250 nM; at EGFR L858R/T790M (setting [6]) it was less than 50 nM.

Take `COc1cc(F)c(NC(=O)C#CCN(C)C)cc1Nc1ncc(Cl)c(Nc2ccccc2P(C)(C)=O)n1` [Example 87, N-(5-((5-chloro-4-((2-(dimethylphosphoryl)phenyl)amino)pyrimidin-2-yl)amino)-2-fluoro-4-methoxyphenyl)-4-(dimethylamino)but-2-ynamide]: the GI50 in experiment [1] and in experiment [2] was less than 50 nM throughout. Further, the IC50 in experiment [3] (human EGFR native sequence) is less than 50 nM; on EGFR L858R (EGFR L858R), less than 50 nM; in experiment [4] (BAF3 PARENTAL cells (control)) it was 101 to 250 nM; at EGFR L858R/T790M (setting [6]), less than 50 nM.

Regarding `C=CC(=O)Nc1cc(Nc2ncc(Cl)c(Nc3ccccc3P(C)(C)=O)n2)c(OC)cc1N1CCC(N2CCC(O)C2)C1` (stereo not drawn) [Example 35, N-(5-((5-chloro-4-((2-(dimethylphosphoryl)phenyl)amino)pyrimidin-2-yl)amino)-2-(3-hydroxy-[1,3′-bipyrrolidin]-1′-yl)-4-methoxyphenyl)acrylamide], the values for the GI50 in experiment [1] and in experiment [2] were 101 to 250 nM and not below 250 nM, respectively. For the same molecule, the IC50 is less than 50 nM in experiment [3] (human EGFR native sequence), less than 50 nM at EGFR L858R (EGFR L858R), not below 250 nM in experiment [4] (BAF3 PARENTAL cells (control)) and less than 50 nM at EGFR L858R/T790M (setting [6]).

For `COc1ccc(NC(=O)/C=C\C(=O)NCCN(C)C)cc1Nc1ncc(Cl)c(Nc2ccccc2P(C)(C)=O)n1` [Example 64, N1-(3-((5-chloro-4-((2-(dimethylphosphoryl)phenyl)amino)pyrimidin-2-yl)amino)-4-methoxyphenyl)-N4-(2-(dimethylamino)ethyl)maleamide], the GI50 in experiment [1] and in experiment [2] was not below 250 nM throughout. Moreover, the IC50 is not below 250 nM in experiment [3] (human EGFR native sequence), less than 50 nM on EGFR L858R (EGFR L858R), not below 250 nM in experiment [4] (BAF3 PARENTAL cells (control)) and less than 50 nM at EGFR L858R/T790M (setting [6]).

For `COc1ccc(NC(=O)C2=CCCN(C)C2)cc1Nc1ncc(Cl)c(Nc2ccccc2P(C)(C)=O)n1` [Example 84, N-(3-((5-chloro-4-((2-(dimethylphosphoryl)phenyl)amino)pyrimidin-2-yl)amino)-4-methoxyphenyl)-1-methyl-1,2,5,6-tetrahydropyridine-3-carboxamide], the GI50 in experiment [1] and in experiment [2] was not below 250 nM each time. The half-inhibitory concentration (IC50) was not below 250 nM in experiment [3] (human EGFR native sequence), less than 50 nM at EGFR L858R (EGFR L858R), not below 250 nM in experiment [4] (BAF3 PARENTAL cells (control)) and less than 50 nM at EGFR L858R/T790M (setting [6]).

Take `C=CC(=O)Nc1cc(Nc2ncc(Cl)c(Nc3ccccc3P(C)(C)=O)n2)c(OC)cc1OCCN1CCCC1` [Example 1, N-(5-((5-chloro-4-((2-(dimethylphosphoryl)phenyl)amino)pyrimidin-2-yl)amino)-4-methoxy-2-(2-(pyrrolidin-1-yl)ethoxy)phenyl)acrylamide]: the GI50 in experiment [1] and in experiment [2] was less than 50 nM throughout. Also, the IC50 in experiment [3] (human EGFR native sequence) is less than 50 nM; at EGFR L858R (EGFR L858R), less than 50 nM; in experiment [4] (BAF3 PARENTAL cells (control)) it was not below 250 nM; on EGFR L858R/T790M (setting [6]), less than 50 nM.
